Test results taken from PubChem BioAssay AID2346 (The Scripps Research Institute Molecular Screening Center, 2010).

Molecular target: Sphingosine 1-phosphate receptor 4 (Homo sapiens) (UniProt O95977)
Experiment: S1P4 receptor antagonists, human, late-stage follow-up, cell-based, fluorescence, synthesized analogues (AID 2346)
Details: S1P4-expressing cells, antagonist fluorescence read-out

Sequence of Sphingosine 1-phosphate receptor 4 (Homo sapiens) (O95977 whole entry, looked up): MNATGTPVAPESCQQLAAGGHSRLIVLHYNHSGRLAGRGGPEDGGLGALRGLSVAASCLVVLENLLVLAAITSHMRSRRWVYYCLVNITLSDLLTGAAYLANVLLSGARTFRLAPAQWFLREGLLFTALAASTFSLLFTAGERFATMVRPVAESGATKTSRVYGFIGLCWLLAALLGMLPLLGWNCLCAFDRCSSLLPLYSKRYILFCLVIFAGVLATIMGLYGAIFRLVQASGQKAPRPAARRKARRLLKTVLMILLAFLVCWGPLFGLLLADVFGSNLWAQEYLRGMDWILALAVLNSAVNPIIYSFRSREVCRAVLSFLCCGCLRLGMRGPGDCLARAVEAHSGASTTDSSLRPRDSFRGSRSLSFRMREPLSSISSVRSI

| SMILES | IC50 |
| --- | --- |
| Cc1ccc(S(C)(=O)=O)c(C)c1NC(=O)c1ccc(-c2cc(Cl)ccc2Cl)o1 | 302 nM |
| Cc1cscc1-c1ccc(C(=O)Nc2c(C)cccc2C)o1 | 286 nM |
| Cc1ccc(C)c(NC(=O)c2ccc(-c3cc(Cl)ccc3Cl)o2)c1 | 165 nM |
| CCc1cccc(CC)c1NC(=O)c1ccc(-c2cc(Cl)ccc2Cl)o1 | 89 nM |
| CC(C)c1cccc(C(C)C)c1NC(=O)c1ccc(-c2cc(Cl)ccc2Cl)o1 | 105 nM |

Other lines, results leading:

| IC50 | SMILES |
| --- | --- |
| 163 nM | COc1cccc(C)c1NC(=O)c1ccc(-c2cc(Cl)ccc2Cl)o1 |
| 497 nM | Cc1cccc(C)c1NC(=O)c1ccc(-c2cccc(Cl)c2)o1 |
| 417 nM | COc1cccc(OC)c1NC(=O)c1ccc(-c2cc(Cl)ccc2Cl)o1 |
| 169 nM | Cc1cccc(Cl)c1NC(=O)c1ccc(-c2cc(Cl)ccc2Cl)o1 |
| 308 nM | Cc1cccc(C)c1NC(=O)c1ccc(-c2cc(F)ccc2F)o1 |
| 253 nM | Cc1ccc2ccccc2c1NC(=O)c1ccc(-c2cc(Cl)ccc2Cl)o1 |
